Source: patent US12391701B2, “Chromene-based compounds, methods and uses thereof” (University of Minho, priority 2019, dated 2025)

Legend:
Assay type in all cases: cell-based
[1] = system: breast cancer cell line MCF-7; assay: Cell viability assay (MTS), MCF-7; details: Homo sapiens, MCF7; 72 h incubation
Procedure: (§1) In an embodiment, the cell growth inhibition and IC50 values of the synthesised and isolated chromene-based compounds were determined as part of the evaluation of the antiproliferative activity of the isolated agents. A complete study on the structure-activity relationship was performed for all the synthesised compounds. The antiproliferative activity against MCF-7 breast cancer cell lines were analysed. […] The non-neoplastic cell line MCF-10A was also used to determine the selectivity of the compounds for the tumour cells. For compounds with an IC50 value (concentration required to reduce cell viability by 50%) higher than 20 μM, the IC50 value was not determined. Selectivity index (SI) was calculated in order to evaluate the cytotoxicity of the tested compounds.
(§2) In an embodiment, three human breast cancer cell lines Hs578T, MDA-MB-468 and MCF-7, and a normal breast cell line MCF-10A, were obtained from ATCC (American Type Culture Collection). The cancer cell lines were cultured in Dulbecco's modified Eagle medium, 4.5 g/l glucose (DMEM, Gibco) supplemented with 10% heating inactivated Fetal Bovine Serum (FBS, Gibco) and 1% antibiotic solution (Penicillin-Streptomycin, Gibco). The normal cell line was cultured in Dulbecco's Modified Eagle Medium: Nutrient Mixture F-12 (DMEM/F12, Gibco) supplemented with 5% heating inactivated FBS (Gibco), 1% antibiotic solution (Penicillin-Streptomycin, Gibco), 1% steroid hormone (Hydrocortisone, Sigma-Aldrich), 0.1% peptide hormone (Insulin, Sigma-Aldrich) and 0.01% protein complex (Cholera Toxin, Gibco). Two distinct human acute myeloid leukemia (AML) cell lines, HL-60 (FAB M2) and KG-1 (erythroleukemia-FAB M6), and one human lymphoblastic leukemia (ALL) cell line, Jurkat (T cell type), were also used. These three cell lines were obtained from German Collection of Microorganisms and Cell cultures (DMSZ®, Deutsche Sammlung von Mikroorganismen and Zellkulturen in German). Cells were cultured in RPMI 1640 medium (Biochrom®-Merck Millipore) supplemented with 10% heating inactivated FBS (Biochrom®-Merck Millipore) and 1% antibiotic/antimitotic mixture (Invitrogen®). Three human glioblastoma (GBM) cell line models, two established and commercially available cell lines (U87MG and GAMG, kind gift from Rui M. Reis) and one primary GBM culture (GLIB) were also used. GBM cells were cultures in DMEM (Biochrom-Merck Millipore), all supplemented with 10% FBS. The Renal cell carcinoma cell lines A498, 786-O, Caki-2 and HK2 were obtained from ATCC. The cancer cell line A498 was cultured in MEM medium (Biochrom®-Merck Millipore), 786-O was cultured in RPMI 1640 medium (Biochrom®-Merck Millipore), Caki-2 was cultured in Mc Coys medium (Biochrom®-Merck Millipore) and HK2 was cultured in RPMI 1640 medium (Biochrom®-Merck Millipore). All the media were supplemented with 10% heat inactivated FBS (Biochrom®-Merck Millipore) and 1% antibiotic/antimitotic mixture (Invitrogen®). All cells were grown in a humidified incubator at 37° C. and 5% CO2. For all assays, DMSO (Dimethyl Sulfoxide, Sigma-Aldrich) controls were used.
(§3) In an embodiment, cell viability assays were performed. MCF-7, Hs578T and MCF-10A cells were plated in triplicate in 96-multiwell culture plates, at 3000 cells […], or 5000 cells […] for MDA-MB-468 (100 μL/well). The cells were then allowed to adhere in complete medium, over a period of 18-20 hours. Cells were subsequently treated with 7 different concentrations (from 0.1 to 40 μM or 5 to 60 μM) of compounds or control in fresh medium. HL-60, KG-1 and Jurkat cell lines were plated in 96-multiwell culture plates at 50.000 cells/100 μL per well and treated with different concentrations (from 0.001 to 2 μM) of the compounds described (or control). Cells were plated, in triplicate, at an initial density of 2000 cells/well for GAMG, 4000 cells/well for GL18 and 6000 cells/well for U87MG, in 96-well plates, and allowed to adhere for 18-20 hours. […]

TNBC cell line Hs578t = assay: Cell viability assay (MTS), Hs578t; details: Homo sapiens, Hs-578T; 72 h incubation
Text: In an embodiment, for a comparison study, monomers and respective dimers were selected and further evaluated in Hs578t and MDA-MB-468 breast cell lines. […] These cell lines correspond to the basal-like subtype of breast cancer, included in the known triple negative subtype, since they are negative for Estrogen receptor (ER), progesterone receptor (PR) and Human epidermal growth factor receptor 2 (HER2) molecular markers. The clinical behaviour of these breast cancer subtype is very aggressive and there is still no specific molecular therapy available.
as §2
(§4) In an embodiment, cell viability assays were performed. MCF-7, Hs578T and MCF-10A cells were plated in triplicate in 96-multiwell culture plates, at 3000 cells […], or 5000 cells […] for MDA-MB-468 (100 μL/well). The cells were then allowed to adhere in complete medium, over a period of 18-20 hours. Cells were subsequently treated with 7 different concentrations (from 0.1 to 40 μM or 5 to 60 μM) of compounds or control in fresh medium. HL-60, KG-1 and Jurkat cell lines were plated in 96-multiwell culture plates at 50.000 cells/100 μL per well and treated with different concentrations (from 0.001 to 2 μM) of the compounds described (or control). Cells were plated, in triplicate, at an initial density of 2000 cells/well for GAMG, 4000 cells/well for GL18 and 6000 cells/well for U87MG, in 96-well plates, and allowed to adhere for 18-20 hours. Cells were then treated with different concentrations of the compounds (0.005 to 100 μM) or with control. […]

[2] = system: renal carcinoma cell lines; assay: First screen against renal carcinoma cell lines; details: IC50 determination not pursued
Text: (§5) In an embodiment, the antiproliferative activity of the compounds was further determined against renal carcinoma cell lines and non-neoplastic kidney cell line.

[3] = system: TNBC cell line MDA-MB-231; assay: Cell viability assay, MDA-MB-231; details: Homo sapiens
[4] = system: non-neoplastic cell line MCF-10A; assay: Cell viability assay (MTS), MCF-10A; details: Homo sapiens, 72 h incubation
Procedure: as §1, §2, §3

[5] = system: renal carcinoma cell line 786-O; assay: Cell viability (sulforhodamine B), 786-O; details: Homo sapiens, 786-0; Table 5
Procedure: as §5, §2
as §4, with “control. A498 and 786-O cells were plated at 2000 cells per mL, Caki-2 cells were plated at 3000 cells per mL and HK2 cells were plated at 2000 cells per mL in triplicate, in 96-multiwell culture plates (100 μL/well), and allowed to adhere over a period of 18-20 hours in complete medium. The cells were then treated with 7 different concentrations (from 0.1 to 40 μM or 5 to 60 μM) of compounds or control in fresh medium.” for “control.”

[6] = system: renal carcinoma cell line A498; assay: Cell viability (sulforhodamine B), A498; details: Homo sapiens, Table 5
Procedure: as §5, §2
as §4, with “control. A498 and 786-O cells were plated at 2000 cells per mL, Caki-2 cells were plated at 3000 cells per mL and HK2 cells were plated at 2000 cells per mL in triplicate, in 96-multiwell culture plates (100 μL/well), and allowed to adhere over a period of 18-20 hours in complete medium. The cells were then treated with 7 different concentrations (from 0.1 to 40 μM or 5 to 60 μM) of compounds or control in fresh medium.” for “control.”

[7] = system: non-neoplastic cell line (HK2); assay: Cell viability, HK2; details: Table 5; read-out: IC50 HK2
Procedure: as §5, §2
as §4, with “control. A498 and 786-O cells were plated at 2000 cells per mL, Caki-2 cells were plated at 3000 cells per mL and HK2 cells were plated at 2000 cells per mL in triplicate, in 96-multiwell culture plates (100 μL/well), and allowed to adhere over a period of 18-20 hours in complete medium. The cells were then treated with 7 different concentrations (from 0.1 to 40 μM or 5 to 60 μM) of compounds or control in fresh medium.” for “control.”

[8] = system: renal carcinoma cell line Caki-2; assay: Cell viability (sulforhodamine B), Caki-2; details: Homo sapiens, Table 5
Procedure: as §5, §2
as §4, with “control. A498 and 786-O cells were plated at 2000 cells per mL, Caki-2 cells were plated at 3000 cells per mL and HK2 cells were plated at 2000 cells per mL in triplicate, in 96-multiwell culture plates (100 μL/well), and allowed to adhere over a period of 18-20 hours in complete medium. The cells were then treated with 7 different concentrations (from 0.1 to 40 μM or 5 to 60 μM) of compounds or control in fresh medium.” for “control.”

Compound | IC50 [1] [nM] | IC50 (TNBC cell line Hs578t) [nM] | biological activity in a first screen [2] | IC50 [3] [nM] | IC50 [4] [nM] | IC50 [5] [nM] | IC50 [6] [nM] | IC50 [7] [nM] | IC50 [8] [nM]
COc1cccc(-c2nc3c([nH]2)Cc2cccc(OC)c2O3)c1O [Compound M955] | 4150 | > 20000 | did not demonstrate any biological activity | 15700 | > 30000 |  |  |  | 
Oc1ccc(Cl)cc1-c1nc2c([nH]1)Cc1cc(Cl)ccc1O2 [Compound M1143] | > 30000 | > 30000 | did not demonstrate any biological activity | > 30000 |  |  |  |  | 
Oc1ccccc1-c1nc2c([nH]1)Cc1ccccc1O2 [Compound M1159] | 3680 |  |  | 10400 | > 30000 | 3040 | 13600 | 5610 | 
COc1ccc2c(c1)Cc1[nH]c(-c3cc(OC)ccc3O)nc1O2 [Compound M1220] | 5850 | > 30000 | did not demonstrate any biological activity |  | > 30000 |  |  |  | 
Oc1ccc(Br)cc1-c1nc2c([nH]1)Cc1cc(Br)ccc1O2 [Compound M1221] | > 30000 |  | did not demonstrate any biological activity | > 30000 |  |  |  |  | 
COc1cccc2c1Oc1nc(-c3cccc(F)c3)[nH]c1C2 [MC349, 2-(3-fluorophenyl)-5-methoxy-3,9-dihydrochromeno[2,3-d]imidazoles] | 770 | 640 |  | 1230 | 2300 | 446 | 1120 | 2630 | 440
COc1cccc2c1Oc1nc(-c3cccc(O)c3)[nH]c1C2 [MC359, 3-(5-methoxy-3,9-dihydrochromeno[2,3-d]imidazol-2-yl)phenol] | 2820 | 3480 |  | 2700 | 6660 | 3210 | 2450 | 5290 | 2340
COc1cccc2c1Oc1nc(-c3ccc(Cl)cc3)[nH]c1C2 [MC412, 2-(4-chlorophenyl)-5-methoxy-3,9-dihydrochromeno[2,3-d]imidazoles] | 440 | 980 |  | 1670 | 1740 | 32 | 290 | 1630 | 39
